US6177253A, “Screening methods for the identification of anti-HIV compounds employing a cyclosporine-specific monoclonal antibody that cross-reacts with HIV-1 p24” (priority 1998, dated 2001)
“Also recorded” adds a separate entry of the source.

Legend:
R575 = experiment: Inhibition RIA of [3H]CsA binding to rabbit anti-cyclosporine antibodies R575; conditions: for affinity group for the rabbit antibodies: inhibition RIA, in words; for IC50: read-out: IC50 = Concentration for 50% inhibition, inhibition of [3H] dihydro CsA binding to rabbit antibody R575
Method: Serum antibodies were detected by a modification of the published radioimmunoassay (5, 12). […] Binding by diluted preimmune serum was used as a control. Free and bound ligand were separated with charcoal supplied by Sandoz according to their procedure. […] The cyclosporin derivatives were dissolved in 100% ethanol at a concentration of 5.0 mg/ml, stored at -20° C., and diluted to final concentrations of 0.27 nM to 2.7 μM in Sandoz buffer B for the inhibition experiments.

C4 2.2 = experiment: ELISA inhibition by singly modified Cs-derivatives, McAb C4 2.2; format: binding, BALB/c mice; conditions: group V; McAb binds selectively to Thr^2 -Cs-BSA coating
Method: (§1) A second ELISA Procedure used conjugates of D-Lys^8 -Cs-BSA and Thr^2 -Cs-BSA for coating (Queeniaux et al., 1987b). An indirect detection system consisting of rabbit anti-mouse Ig followed by alkaline phosphates-conjugated goat anti-rabbit IgG was performed as previously described (Queenlaux et al., 1987b).
(§2) The binding of the 22 McAbs to these two Cs-BSA conjugates was also found to correlate well with their fine specificity patterns, as characterized with a set of 28-36 Cs derivatives. Typical ELISA curves showing McAb binding either to D-Lys^8 -Cs-BSA (panel A) or to Thr^2 -Ca-BSA (panel B) and inhibited by Cs or Cs derivatives are shown in FIGS. 8A-8B, D-Lys^8 -Cs-BSA was subsequently used for coating in the inhibition experiments, except for those McAbs binding selectively to Thr^2 -Cs-BSA (see Table 4 and FIGS. 7A-7C). An example of the binding of 26 Cs derivatives by McAbs belonging to each of the five specificity groups mentioned above is reported in Table 5. The results are expressed as the difference of IC50 (in log10) between the Cs derivatives and Cs. All Cs-derivatives used in this study were selected for having a conserved peptide ring conformation compared with CsA (as determined in NMR or X-ray diffraction).

H4 1.3 = experiment: ELISA inhibition by singly modified Cs-derivatives, McAb H4 1.3; format: binding, BALB/c mice; conditions: group II; D-Lys^8 -Cs-BSA coating
Method: as §1, §2

B11 1.4 = experiment: ELISA inhibition by singly modified Cs-derivatives, McAb B11 1.4; format: binding, BALB/c mice; conditions: group IV; D-Lys^8 -Cs-BSA coating
Method: as §1, §2

G7 1.1 = experiment: ELISA inhibition by singly modified Cs-derivatives, McAb G7 1.1; format: binding, BALB/c mice; conditions: group I; McAb binds selectively to Thr^2 -Cs-BSA coating
Method: as §1, §2

H6 1.5 = experiment: ELISA inhibition by singly modified Cs-derivatives, McAb H6 1.5; format: binding, BALB/c mice; conditions: group III; D-Lys^8 -Cs-BSA coating
Method: as §1, §2

SMILES	affinity group for the rabbit antibodies (R575)	IC50 (R575) [nM]	affinity group for the rabbit antibodies (R575; listed as CSC)	inhibition of [^3 H] CsA binding obtainable (R575; maximal inhibition)	log10 difference in the concentrations of Cs-derivatives and unmodified Cs required to achieve 50% inhibition in ELISA, McAb C4 2.2 (C4 2.2) [log10]	log10 difference in the concentrations of Cs-derivatives and unmodified Cs required to achieve 50% inhibition in ELISA, McAb H4 1.3 (H4 1.3) [log10]	log10 difference in the concentrations of Cs-derivatives and unmodified Cs required to achieve 50% inhibition in ELISA, McAb B11 1.4 (B11 1.4) [log10]	log10 difference in the concentrations of Cs-derivatives and unmodified Cs required to achieve 50% inhibition in ELISA, McAb G7 1.1 (G7 1.1) [log10]	log10 difference in the concentrations of Cs-derivatives and unmodified Cs required to achieve 50% inhibition in ELISA, McAb H6 1.5 (H6 1.5) [log10]
C/C=C/C[C@@H](C)[C@@H](O)[C@H]1C(=O)N[C@@H]([C@@H](C)OC(C)=O)C(=O)N(C)CC(=O)N(C)[C@@H](CC(C)C)C(=O)N[C@@H](C(C)C)C(=O)N(C)[C@@H](CC(C)C)C(=O)N[C@@H](C)C(=O)N[C@H](C)C(=O)N(C)[C@@H](CC(C)C)C(=O)N(C)[C@@H](CC(C)C)C(=O)N(C)[C@@H](C(C)C)C(=O)N1C [compound 665]	high affinity; also recorded: bind best	4.8	–	–	–	–	–	–	–
C/C=C/C[C@@H](C)[C@@H](O)[C@H]1C(=O)N[C@@H](C(C)C)C(=O)N(C)CC(=O)N(C)[C@@H](CC(C)C)C(=O)N[C@@H](C(C)C)C(=O)N(C)[C@@H](CC(C)C)C(=O)N[C@@H](C)C(=O)N[C@H](C)C(=O)N(C)[C@@H](CC(C)C)C(=O)N(C)[C@@H](CC(C)C)C(=O)N(C)[C@@H](C(C)C)C(=O)N1C [CsD]	high affinity; also recorded: bind best	4.3	–	–	–	–	–	–	–
C/C=C/C[C@@H](C)[C@@H](O)[C@H]1C(=O)N[C@@H](CC)C(=O)N2CCC[C@H]2C(=O)N(C)[C@@H](CC(C)C)C(=O)N[C@@H](C(C)C)C(=O)N(C)[C@@H](CC(C)C)C(=O)N[C@@H](C)C(=O)N[C@H](C)C(=O)N(C)[C@@H](CC(C)C)C(=O)N(C)[C@@H](CC(C)C)C(=O)N(C)[C@@H](C(C)C)C(=O)N1C [compound 582]	Moderate affinities	12	–	–	–	–	–	–	–
C/C=C/C[C@@H](C)[C@@H](O)[C@H]1C(=O)N[C@@H](CC)C(=O)N(C)CC(=O)N(C)[C@@H](CC(C)C)C(=O)N[C@@H](C(C)C)C(=O)N(C)[C@@H](CC(C)C)C(=O)N[C@@H](C)C(=O)N[C@H](C)C(=O)N(C)[C@@H](CC(C)C)C(=O)N(C)[C@@H](CC(C)C)C(=O)N(C)[C@@H]([C@@H](C)CC)C(=O)N1C [compound 032]	high affinity; also recorded: bind best	7	–	–	–	–	–	–	–
C/C=C/C[C@@H](C)[C@@H](O)[C@H]1C(=O)N[C@@H]([C@@H](C)O)C(=O)N(C)CC(=O)N(C)[C@@H](CC(C)C)C(=O)N[C@@H](C(C)C)C(=O)N(C)[C@@H](CC(C)C)C(=O)N[C@@H](C)C(=O)N[C@H](C)C(=O)N(C)[C@@H](CC(C)C)C(=O)N(C)[C@@H](CC(C)C)C(=O)N(C)[C@@H](C(C)C)C(=O)N1C [CsC]	Moderate affinities	11.5	moderate affinities	–	–	–	–	–	–
C/C=C/C[C@@H](C)[C@@H](O)[C@H]1C(=O)N[C@@H](CC)C(=O)N(C)CC(=O)N(C)[C@@H](CC(C)C)C(=O)N[C@@H](C(C)C)C(=O)N(C)[C@H](C)C(=O)N[C@@H](C)C(=O)N[C@H](C)C(=O)N(C)[C@@H](CC(C)C)C(=O)N(C)[C@@H](CC(C)C)C(=O)N(C)[C@@H](C(C)C)C(=O)N1C [compound 039]	Moderate affinities	18	–	–	–	–	–	–	–
C/C=C/C[C@@H](C)[C@@H](OC(C)=O)[C@H]1C(=O)N[C@@H](CC)C(=O)N(C)CC(=O)N(C)[C@@H](CC(C)C)C(=O)N[C@@H](C(C)C)C(=O)N(C)[C@@H](CC(C)C)C(=O)N[C@@H](C)C(=O)N[C@H](C)C(=O)N(C)[C@@H](CC(C)C)C(=O)N(C)[C@@H](CC(C)C)C(=O)N(C)[C@@H](C(C)C)C(=O)N1C [compound 243]	high affinity; also recorded: bind best	6	–	–	–	–	–	–	–
C/C=C/C[C@@H](C)[C@@H](O)[C@H]1C(=O)N[C@@H](CC)C(=O)N(C)CC(=O)N(C)[C@@H](CC(C)C)C(=O)N[C@@H](C(C)C)C(=O)N(C)[C@@H](CC(C)C)C(=O)N[C@@H](C)C(=O)N[C@H](COC(C)(C)C)C(=O)N(C)[C@@H](CC(C)C)C(=O)N(C)[C@@H](CC(C)C)C(=O)N(C)[C@@H](C(C)C)C(=O)N1C [compound 717]	inhibits very poorly; also recorded: low affinity	2700	–	more than 50%	–	–	–	–	–
C/C=C/C[C@@H](C)[C@@H](O)[C@H]1C(=O)N[C@@H]([C@H](C)O)C(=O)N(C)CC(=O)N(C)[C@@H](CC(C)C)C(=O)N[C@@H](C(C)C)C(=O)N(C)[C@@H](CC(C)C)C(=O)N[C@@H](C)C(=O)N[C@H](C)C(=O)N(C)[C@@H](CC(C)C)C(=O)N(C)[C@@H](CC(C)C)C(=O)N(C)[C@@H](C(C)C)C(=O)N1C [Abu^2 aThr]	–	–	–	–	0.3	1.5	0.0	< 0.0	1.1
C/C=C/C[C@@H](C)[C@@H](O)[C@H]1C(=O)N[C@@H](CC)C(=O)N(C)CC(=O)N(C)[C@@H](CC(C)C)C(=O)N[C@@H](C(C)C)C(=O)N(C)[C@@H](C)C(=O)N[C@@H](C)C(=O)N[C@H](C)C(=O)N(C)[C@@H](CC(C)C)C(=O)N(C)[C@@H](CC(C)C)C(=O)N(C)[C@@H](C(C)C)C(=O)N1C [MeLeu^6 McAla]	–	–	–	–	1.2	0.9	0.0	0.7	2.7
C/C=C/C[C@@H](C)[C@@H](OC(C)=O)[C@H]1C(=O)N[C@@H](CC)C(=O)N(C)CC(=O)N(C)[C@@H](CC(C)C)C(=O)N[C@@H](C(C)C)C(=O)N(C)[C@@H](CC(C)C)C(=O)N[C@@H](C)C(=O)N[C@H](C)C(=O)N(C)[C@@H](CC(C)C)C(=O)N(C)[C@@H](CC(C)C)C(=O)N(C)[C@@H](C(C)C)C(=O)N1C [MeBint^1 3'-O-acetyl]	–	–	–	–	0.2	1.1	0.7	0.1	0.6
C/C=C/C[C@@H](C)[C@@H](O)[C@H]1C(=O)N[C@@H](CC)C(=O)N(C)CC(=O)N(C)[C@@H](Cc2ccccc2)C(=O)N[C@@H](C(C)C)C(=O)N(C)[C@@H](CC(C)C)C(=O)N[C@@H](C)C(=O)N[C@H](C)C(=O)N(C)[C@@H](CC(C)C)C(=O)N(C)[C@@H](CC(C)C)C(=O)N(C)[C@@H](C(C)C)C(=O)N1C [MeLeu^4 MePhe]	–	–	–	–	0.0	0.7	0.2	< 0.0	2.3
C/C=C/C[C@@H](C)[C@@H](O)[C@H]1C(=O)N[C@@H](CCC)C(=O)N(C)CC(=O)N(C)[C@@H](CC(C)C)C(=O)N[C@@H](CCC)C(=O)N(C)[C@@H](CC(C)C)C(=O)N[C@@H](C)C(=O)N[C@H](C)C(=O)N(C)[C@@H](CC(C)C)C(=O)N(C)[C@@H](CC(C)C)C(=O)N(C)[C@@H](C(C)C)C(=O)N1C [Val^5 NVa^2, Nva^5]	–	–	–	–	0.1	1.2	0.2	0.5	0.2
